The subject of experiment [1] is cultured bovine lenses. Briefly: Lens degradation/opacification of DMEM-cultured bovine lenses (light transmittance, photographs). It counts as cell-based. Particulars: 120 hours; for attenuation of light transmittance compared to untreated DMEM lenses (time=0 hours): 420 nm.
Experiment [2] relates to cultured bovine lenses. Briefly: H2O2-induced lens degradation/opacification in cultured bovine lenses (light transmittance, photographs). It counts as cell-based.
The test system of a further experiment is glutathione (GSH). Particulars: 50 mM; 120 hours.

“Also recorded” adds a separate entry of the source.

With `O=C1O[C@H]([C@@H](O)CO)C(O)=C1O` [ascorbic acid], the “attenuation of light transmittance compared to untreated DMEM lenses (time=0 hours)” value with cultured bovine lenses [1] (3 mM) turned out to be 60.57%. In the experiment on cultured bovine lenses [1] (10 mM), the “attenuation of light transmittance compared to untreated DMEM lenses (time=0 hours)” value is 57.42% and the “qualitative assessment of lens opacity (photographs against grid)” value is “accelerated the degradation process; also recorded: accelerated lens degradation; also recorded: accelerated clouding of the lens”. In the experiment on cultured bovine lenses [2] (3 mM, H2O2 50 mM, 120 hours), the “attenuation of H2O2-induced inhibition of light transmittance” value is recorded as 9.22% and the “qualitative assessment of H2O2-induced lens opacity (photographs against grid)” value is reported as “protected lenses from peroxide-induced degradation”. The “protection from peroxide-induced lens degradation” value with cultured bovine lenses [2] (10 mM, H2O2 50 mM, 120 hours) is given as “failed to protect”.

With `OO` [H2O2, hydrogen peroxide], in the experiment on cultured bovine lenses [2] (50 mM, after 120 hours), the “decrease of light transmittance compared to DMEM-cultured lenses (time=0 hour)” value is reported as 36.76%. For the same compound, in the experiment with glutathione (GSH), the “attenuation of GSH content compared to untreated lenses (time=0 hours)” value is recorded as 82.56%.
